Results reported in PubChem BioAssay (NCI).
Several values for one entry are separate records, joined by “and”; a condition that tells them apart may be missing. Equal values may be shown once.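 Method: 48-hour compound exposure of cells in 96-well plates, five concentrations, linear interpolation of endpoints. GI50 = concentration required for 50% inhibition of growth. At the TGI there is no net growth.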

Experiments:
Experiment in all cases: DTP human tumour cell line panel, 48 h
COLO 205 colon = tested on: COLO 205 colon
DU-145 prostate = tested on: DU-145 prostate
HCC-2998 colon = tested on: HCC-2998 colon
HCT-116 colon = tested on: HCT-116 colon
HS 578T breast = tested on: HS 578T breast
MDA-MB-231 breast = tested on: MDA-MB-231 breast
MDA-MB-435 = tested on: MDA-MB-435
NCI-H23 lung = tested on: NCI-H23 lung
SF-268 CNS = tested on: SF-268 CNS
TK-10 renal = tested on: TK-10 renal

| Structure (SMILES) | GI50 (COLO 205 colon) [µM] | TGI (COLO 205 colon) [µM] | GI50 (DU-145 prostate) [µM] | TGI (DU-145 prostate) [µM] | GI50 (HCC-2998 colon) [nM] | TGI (HCC-2998 colon) [µM] | GI50 (HCT-116 colon) [µM] | TGI (HCT-116 colon) [µM] | GI50 (HS 578T breast) [µM] | TGI (HS 578T breast) [µM] | GI50 (MDA-MB-231 breast) [µM] | TGI (MDA-MB-231 breast) [µM] | GI50 (MDA-MB-435) [µM] | TGI (MDA-MB-435) [µM] | GI50 (NCI-H23 lung) [nM] | TGI (NCI-H23 lung) | GI50 (SF-268 CNS) [µM] | TGI (SF-268 CNS) [µM] | GI50 (TK-10 renal) [µM] | TGI (TK-10 renal) [µM] |
| --- | --- | --- | --- | --- | --- | --- | --- | --- | --- | --- | --- | --- | --- | --- | --- | --- | --- | --- | --- | --- |
| COc1ccc(/C=C2\CN(Cc3cn(CCNc4ccnc5cc(Cl)ccc45)nn3)C/C(=C\c3ccc(OC)c(OC)c3)C2=O)cc1OC | 1.99 | 3.9 | 3.48 | 11 | 1960 | 3.62 | 1.95 | 3.85 | 6.49 | > 100 | 2.56 | 7.68 | 3.01 | 19.1 | 7450 | 37.8 µM | 3.36 | 21.5 | 4.96 | 22 |
| c1cncc(C2Nc3cccc4cccc(c34)N2)c1 | 22.6 | 46.6 | > 100 | > 100 | > 100000 | > 100 | 16.5 | 31.6 | 73.4 | > 100 | 20.3 | 65.7 | 35.7 | > 100 | 77600 | > 100 µM | 33.8 | > 100 | 26.8 | 73.6 |
| CCCCNC(=O)Oc1ccc(/C(=C(/C)Cc2ccc(OC)cc2)c2ccc(OCCN3CCCC3)cc2)cc1 | 1.83 | 3.57 | 2.29 | 5.44 | 1830 | 3.48 | 1.55 | 2.98 | 2.11 | 4.81 | 1.87 | 3.49 | 1.63 | 3.1 | 2260 | 5.67 µM | 1.98 | 4.4 | 4.31 | 17.8 |
| CCOC(=O)c1oc2ccc([N+](=O)[O-])c3c2c1CCC3 | – | > 100 | – | > 100 | – | > 100 | – | > 100 | – | > 85 | – | > 100 | – | > 55.5 | – | > 100 µM | – | 72.2 | – | 85.9 |
| CCCCC(=O)N/N=C/c1c(O)ccc2ccccc12 | 2.61 | > 27.6 | 2.7 | > 100 | 3880 | > 100 | 1.32 | > 29.6 | 6.54 | > 100 | 3.51 | > 94.8 | 4.37 | > 100 | 4140 | > 100 µM | 0.874 | > 75 | 1.82 | > 24.3 |
| O=S1(=O)CS(=O)(=O)OCCO1 | – | 157 | – | 178 | 68100 | 106 | > 74.6 | 85.3 | – | 176 | – | 352 | 72.9 | 94.4 | – | > 81.5 µM and 113 µM | 85.6 | 249 | – | 363 |
| Cc1cc2nc3cc(C)c(N)cc3[n+](-c3ccccc3)c2cc1N | 2.55 | 14.3 | 7.89 | > 100 | 4050 | > 46 | 3.64 | 41.4 | 10.6 | > 100 | 20.5 | > 100 | 4.68 | 67 | 2770 | > 63.5 µM | 2.23 | > 100 | 36.6 | > 100 |
| CN1CCN(Cc2ccc(NC(=O)c3cncc(C#Cc4cncc5nccnc45)c3)cc2C(F)(F)F)CC1 | 0.904 | 7.11 | 3.22 | 9.6 | 1730 | 8.48 | 1.39 | 7.35 | 1.13 | 7.89 | 0.869 | 4.59 | 1.34 | 7.3 | 2160 | 11 µM | 5.22 | 16.6 | 5.34 | 12.8 |
| C[C@]12CC[C@H]3[C@@H](C[C@@H]4SC(Nc5ccccc5)=N[C@@]45CC(O)CC[C@]35C)[C@@H]1CCC2O (some centres not stated) | 2.45 | 5.61 | 1.7 | 3.62 | 1970 | 3.56 | 1.51 | 3.01 | 2.16 | 17.2 | 1.99 | 4.63 | 2.25 | 7.03 | 2030 | 5.04 µM | 1.66 | 3.32 | 2.91 | 6.63 |
| COC(=O)C(CBr)CBr | – | 3 | – | 31.9 | – | 10.9 | – | 11.5 | – | 19.4 | – | 4.36 | – | 10.1 | – | 19.5 µM | – | 41.9 | – | 10.8 |
| COCCN1CCN(Cc2ccc(-c3n[nH]c4c3C(=O)c3c(NC(=O)NN5CCOCC5)cccc3-4)cc2)CC1 | 0.0151 | 0.0474 | 0.0267 | – | 26.2 | 0.274 | 0.00897 | 1.14 | 0.0293 | 1.22 | 0.0194 | 0.584 | 0.0227 | 0.424 | 22.7 | 0.129 µM | 0.0318 | – | 0.0199 | 0.422 |
| O=C(O)CCc1c2ccc(=O)c(O)c-2oc2c(O)c(O)ccc12 | – | > 100 | – | > 100 | – | > 100 | – | 59.5 | – | > 100 | – | 62.9 | – | 31.1 | – | > 100 µM | – | > 100 | – | > 100 |
| Cc1[nH]nc2c1N=C(c1ccccc1F)c1cc(C(N)=O)ccc1N2 | 2.3 | 6.61 | 6.71 | > 25 | 8510 | > 25 | 1.02 | > 25 | 0.511 | 7.25 | 6.8 | > 25 | 7.35 | > 25 | 6850 | > 25 µM | 2.22 | 8.46 | 3.61 | 16.3 |
| C[n+]1c(-c2ccc(/C=N/NC(=O)c3ccc(C(=O)N/N=C/c4ccc(-c5cn6ccccc6[n+]5C)cc4)cc3)cc2)cn2ccccc21 | > 1000 | > 1000 | 206 | 698 | 577000 | > 1000 | > 1000 | > 1000 | > 1000 | > 1000 | 119 | 242 | > 1000 | > 1000 | 297000 | 717 µM | > 1000 | > 1000 | 228 | 374 |
| C/C(=N\N=C(\[Se])N(C)C)c1ccccn1 | – | 2.05 | – | 18 | – | 13.9 | – | 14.2 | – | 40.6 | – | 30.7 | – | 16.6 | – | 11 µM | – | 25.6 | – | 18.1 |
| O=C1C(=O)c2ccccc2C(O)=C1CCCc1ccc(C2CCCCCC2)cc1 | 4.9 | 20 | 0.72 | 34.3 | 863 | 22.7 | 0.426 | 13.3 | 4.84 | 57.8 | 5.76 | 42.2 | 0.608 | 48.2 | 649 | 15.8 µM | 0.625 | 26.7 | 3.14 | 57 |
| CC(C)CC(Nc1c(O)ccc2ccccc12)C(=O)O (configuration not stated) | – | > 100 | – | > 100 | – | > 100 | – | > 100 | – | 95.9 | – | > 100 | – | 45.6 | – | > 100 µM | – | 83.3 | – | > 100 |
